{"source": "patent US20250108049A1", "about": "“COMPOUNDS FOR TREATING MDS-ASSOCIATED ANEMIAS AND OTHER CONDITIONS” (Agios Pharmaceuticals, Inc., priority 2021, published 2025)", "key": {"[1]": {"system": "Polg^D257A mice", "assay": "Bone marrow aspirate flow cytometry of erythroblast populations in Polg^D257A mice (Example 3)", "format": "in vivo, mouse", "conditions": "10 mg/kg/day in chow, 8 months of treatment", "protocol": "(§1) To determine the impacts of mitapivat and Compound 1 under these conditions, bone marrow aspirates from diseased mice were collected and populations of erythroblasts were evaluated at various stages of maturation using flow cytometry. Hemoglobin (Hb), red blood cell (RBC) counts, and reticulocyte fractions were also monitored every 4 weeks in whole blood on a Sysmex XN-1000™ hematology analyzer to determine if disease burden and impact on erythroblast maturation could be detected in the periphery. Pharmacodynamics and pharmacokinetic analysis were also performed to confirm appropriate exposure and target engagement of the compounds (data not shown).\n(§2) A second experiment was performed using the Polg^D257A model (RRID:IMSR_JAX:017341) from Example 2. In this experiment 20 mice (10 males and 10 females per group) were dosed with either mitapivat or Compound 1 in chow as described in Example 2. For the mitapivat group, the compound was dosed at 200 mg/kg/day and for the Compound 1 group, Compound 1 was dosed at 10 mg/kg/day. Treatment was started when the mice were 4 months of age and was continued for 8 months (rolling enrollment). Following 8 months of treatment (at 12 months of age), an evaluation of bone marrow aspirates was conducted by flow cytometry using well established markers of erythropoiesis following a modified procedure outlined in Suragani et al., Nat Med 2014 Apr; 20(4):408-14. Bone marrow aspirates were treated with ACK lysis buffer for 3 minutes to remove red blood cells from the sample. Remaining cells were washed and maintained in PBS+5% FBS throughout the remainder of the procedure. The flow cytometry panel included live/dead (Indol), B220 (BV421), CD5 (BV421), CD71 (AF700), and Terl19 (PE) antibodies. The gating strategy used for analysis was as follows: Live/B220-CD5-/Terl19+. Ter119+cells were then gated into populations using CD71 and FSC as outlined in the literature (Suragani et al., Nat Med 2014 Apr; 20(4):408-14; FIG. 6E). […] FIG. 6D. Flow cytometry data on the mitapivat treated Polg^D257A mice is not available as the mitapivat treatment arm is not yet completed."}, "[2]": {"system": "Polg^D257A mice", "assay": "Whole blood Hb, RBC and reticulocyte analysis in Polg^D257A mice, second experiment (Example 3)", "format": "in vivo, mouse", "protocol": "as §1, §2\nData not shown. After 24 weeks (6 months thus far) of treatment, mitapivat increased Hb and RBC counts by 7% in Polg^D257A mice, with no change in reticulocytes. Data not shown. After 32 weeks of treatment with Compound 1 no change in Hb, RBC count, or reticulocyte fraction was observed. Data not shown."}, "[3]": {"system": "NHD13 mice", "assay": "Bone marrow aspirate flow cytometry of erythroblast populations in NHD13 mice (Example 5)", "format": "in vivo, mouse", "conditions": "NHD13 mice aged 4 months, in chow, 20 weeks of treatment; mild disease in model", "protocol": "as §1\nA NUP98-HOXD13 (NHD13) transgenic MDS associated mouse model will also be used to assess the therapeutic benefit of disclosed compounds. See e.g., Lin et al., Blood 2005 Jul 1;106(1):287-95 and Suragani et al., Nat Med 2014 Apr;20(4):408-14. […] A full blood panel and erythroid precursor analysis will be conducted after 2 months of treatment, and results will be analyzed.\nUsing Example 4, 20 NHD13 mice (10 males and 10 females per group; RRID:IMSR_JAX:010505) aged 4 months were randomized into treatment groups using matched distribution of hemoglobin levels. […] After 20 weeks of treatment with either mitapivat or Compound 1, bone marrow aspirates of the NHD13 mice were collected as described above and analyzed by flow cytometry. […]"}, "[4]": {"system": "NHD13 mice", "assay": "Whole blood hematology in NHD13 mice (Example 5)", "format": "in vivo, mouse", "conditions": "NHD13 mice aged 4 months, in chow, 20 weeks of treatment", "protocol": "as §1\nA NUP98-HOXD13 (NHD13) transgenic MDS associated mouse model will also be used to assess the therapeutic benefit of disclosed compounds. See e.g., Lin et al., Blood 2005 Jul 1;106(1):287-95 and Suragani et al., Nat Med 2014 Apr;20(4):408-14. Male and female NHD13 mice aged to 4 or 10 months will be administered a disclosed compound in chow, ad libitum (e.g., mitapivat or Compound 1) daily. A full blood panel and erythroid precursor analysis will be conducted after 2 months of treatment, and results will be analyzed.\nUsing Example 4, 20 NHD13 mice (10 males and 10 females per group; RRID:IMSR_JAX:010505) aged 4 months were randomized into treatment groups using matched distribution of hemoglobin levels. Mice were dosed with either mitapivat or Compound 1 for 20 weeks in the same manner (in chow, ad libitum) as Example 3. After 20 weeks of treatment with either mitapivat or Compound 1, bone marrow aspirates of the NHD13 mice were collected as described above and analyzed by flow cytometry. […] In addition, a significant decline in survival of vehicle control NHD13 mice as previously reported (Lin et al., […] 2005 July;106(1)) was not observed. […] This mild state of disease was also supported in whole blood analysis. […] Data not shown."}, "[5]": {"system": "Polg^D257A mice", "assay": "Mitapivat in Polg^D257A MDS-associated anemia mouse model, whole blood hematology (Example 2)", "format": "in vivo", "conditions": "200 mg/kg/day in chow", "protocol": "as §1\nMitochondrial disruption has been linked to the development of anemia in MDS patients (see, e.g., Chen et al. Blood. 2009; 114(19):4045-53). Mitochondria play a key role in regulation of apoptosis, which is a mechanism highlighted in defunct hematopoiesis of MDS (Green et al., Science 1998; 281(5381):1309-1312, Kerbauy et al., Exp Hematol. 2007; 35(11): 1739-1746; Ahlqvist et al. Nature Communications. 2015; 6:6494). B6.12957(Cg)-Polg^tm1prol/J, or Polg^D257A, is a mouse model with a mutation in the N-terminus of the DNA polymerase γ gene that results in impaired proofreading activity in the mitochondria, leading to increased mtDNA mutagenesis (Jackson Laboratory #017341). See, Chen et al. Blood. 2009; 114(19):4045-53 and Ahlqvist et al. Nature Communications. 2015; 6:6494. […] Here, we used the Polg^D257A mouse model to evaluate the therapeutic benefit of a PK activator, mitapivat, in this mechanism of anemia.\nMale and female Polg^D257A mice were administered 200 mg/kg/day mitapivat in chow, ad libitum, for 18 weeks starting at 7.5 months of age, once anemic phenotype was established by hematology analysis. Whole blood was collected via tail vein into EDTA tubes and analyzed using a Sysmex XN-2000™ hematology system according to manufacturer protocol. Hemoglobin, red blood cells (RBCs), and reticulocytes were monitored every 2-4 weeks to track disease progression and severity. After 18 weeks of mitapivat treatment, RBC counts were elevated by 45% and hemoglobin levels were increased by 2.4 g/dL in mitapivat treated mice compared to untreated mutants.\nSee FIGS. 1A-D and FIGS. 2A-D (C57BL/6J mice were used as controls). […] Commensurate with increased hemoglobin was a marked decrease (about 30%) in reticulocyte count."}, "[6]": {"conditions": "10 mg/kg/day in chow, after 32 weeks of treatment"}, "[7]": {"conditions": "male and female Polg^D257A mice, after 18 weeks"}, "[8]": {"conditions": "200 mg/kg/day in chow, after 24 weeks of treatment"}}, "data": [{"smiles": "Cn1c2nc(Cc3cc[nH]n3)sc2c2cnn(Cc3cccc(N)n3)c(=O)c21", "note": "[Compound 1, 2-((1H-pyrazol-3-yl)methyl)-6-((6-aminopyridin-2-yl)methyl)-4-methyl-4H-thiazolo[5′,4′:4,5]pyrrolo[2,3-d]pyridazin-5(6H)-one]", "values": [{"measurement": "late basophilic and polychromatic erythroblasts (EryB) in bone marrow", "setting": "[1]", "value": "increase"}, {"measurement": "orthochromatic and reticulocytes (EryC) in bone marrow", "setting": "[1]", "value": "increase"}, {"measurement": "ProE (proerythrocyte) population in bone marrow", "setting": "[1]; compared to vehicle control Polg^D257A mice", "value": "no additional impact"}, {"measurement": "basophilic erythroblasts (EryA) in bone marrow", "setting": "[1]; vs vehicle control Polg^D257A mice", "value": "reduction"}, {"measurement": "change in Hb", "setting": "[2]; [6]", "value": "no change"}, {"measurement": "change in RBC count", "setting": "[2]; [6]", "value": "no change"}, {"measurement": "change in reticulocyte fraction", "setting": "[2]; [6]", "value": "no change"}, {"measurement": "therapeutic benefit in bone marrow flow cytometry data (erythroblast populations)", "setting": "[3]", "value": "difficult to detect any therapeutic benefit"}, {"measurement": "reduction in reticulocyte count", "setting": "[4]", "value": 25, "unit": "%"}, {"measurement": "reduction in reticulocyte fraction (FIG. 8C)", "setting": "[4]", "value": 20, "unit": "%"}, {"measurement": "response in Hb compared to vehicle controls (FIG. 8A)", "setting": "[4]", "value": "minimal response"}, {"measurement": "response in RBC count compared to vehicle controls (FIG. 8B)", "setting": "[4]", "value": "minimal response"}]}, {"smiles": "O=C(c1ccc(NS(=O)(=O)c2cccc3cccnc23)cc1)N1CCN(CC2CC2)CC1", "note": "[mitapivat, N-(4-(4-(cyclopropylmethyl)piperazine-1-carbonyl)phenyl)quinoline-8-sulfonamide]", "values": [{"measurement": "decrease in reticulocyte count (FIG. 2C)", "setting": "[5]; Polg^D257A mice", "value": "about 30%"}, {"measurement": "frequency of reticulocytes decreased", "setting": "[5]; Polg^D257A mice, after 18 weeks", "value": 30, "unit": "%"}, {"measurement": "therapeutic benefit (hemoglobin), female mutators", "setting": "[5]; female Polg^D257A mice, after 18 weeks", "value": "responded after 18 weeks"}, {"measurement": "increase in hemoglobin, male mutators", "setting": "[5]; male Polg^D257A mice, starting at 6-weeks post-treatment", "value": "1 to 2", "unit": "g/dL"}, {"measurement": "RBC counts elevated compared to untreated mutants", "setting": "[5]; [7]", "value": 45, "unit": "%"}, {"measurement": "hemoglobin levels increased compared to untreated mutants", "setting": "[5]; [7]", "value": 2.4, "unit": "g/dL"}, {"measurement": "Hb increased", "setting": "[2]; [8]", "value": 7, "unit": "%"}, {"measurement": "RBC counts increased", "setting": "[2]; [8]", "value": 7, "unit": "%"}, {"measurement": "change in reticulocytes", "setting": "[2]; [8]", "value": "no change"}, {"measurement": "therapeutic benefit in bone marrow flow cytometry data (erythroblast populations)", "setting": "[3]", "value": "difficult to detect any therapeutic benefit"}, {"measurement": "reduction in reticulocyte count", "setting": "[4]", "value": 15, "unit": "%"}, {"measurement": "reduction in reticulocyte fraction (FIG. 8C)", "setting": "[4]", "value": 20, "unit": "%"}, {"measurement": "response in Hb compared to vehicle controls (FIG. 8A)", "setting": "[4]", "value": "minimal response"}, {"measurement": "response in RBC count compared to vehicle controls (FIG. 8B)", "setting": "[4]", "value": "minimal response"}]}]}
